Consider three molecules from ChEMBL document CHEMBL4765467, “Improving Thermodynamic Stability and Anticoagulant Activity of a Thrombin Binding Aptamer by Incorporation of 8-trifluoromethyl-2'-deoxyguanosine” (J Med Chem, 2021).

Data set [1] in a line: Stability in 50% human plasma assessed as compound degradation at 50 uM measured within 3 hrs by PAGE analysis. It counts as ADME, cell-free.
The subject of data set [2] is Plasma. The experiment in a line: Anticoagulant activity in human plasma assessed prothrombin time in presence of complementary sequence of TBA. Format: functional, cell-free.
Data set [3] relates to Plasma. The experiment in a line: Anticoagulant activity in human plasma assessed prothrombin time in presence of 1.5 fold complementary sequence of TBA. Format: functional, cell-free.
Data set [4] can be described thus: Thermodynamic stability assessed as change in melting temperature by CD spectroscopy relative to TBA. It counts as physicochemical.
In data set [5] the test system is Plasma. The experiment in a line: Anticoagulant activity in human plasma assessed prothrombin time at 0.25 to 1 uM. Format: functional. To be noted: dose 0.25-1 µM.
For another data set, the system named is Rattus norvegicus. The experiment in a line: Anticoagulant activity in ferric chloride-induced Sprague-Dawley rat carotid thrombosis model assessed as reduction in thrombus formation by measuring thrombus area at […], iv by H and E staining based analysis. Format: functional. More on the design: scale not given: the % may be the effect or the level left.

The nature of data set [6]: Stability in 50% human plasma assessed as compound degradation at 50 uM measured within 3 hrs by PAGE analysis relative to TBA. Format: ADME, cell-free.

Activity calls are given as the source filed them. The calls are words filed in the database; no cut-off is given here.

In the case of `Cc1cn([C@H]2C[C@H](OP(=O)(O)OC[C@H]3O[C@@H](n4cnc5c(=O)[nH]c(N)nc54)C[C@@H]3OP(=O)(O)OC[C@H]3O[C@@H](n4cnc5c(=O)[nH]c(N)nc54)C[C@@H]3OP(=O)(O)OC[C@H]3O[C@@H](n4cc(C)c(=O)[nH]c4=O)C[C@@H]3OP(=O)(O)OC[C@H]3O[C@@H](n4cnc5c(=O)[nH]c(N)nc54)C[C@@H]3OP(=O)(O)OC[C@H]3O[C@@H](n4cc(C)c(=O)[nH]c4=O)C[C@@H]3OP(=O)(O)OC[C@H]3O[C@@H](n4cnc5c(=O)[nH]c(N)nc54)C[C@@H]3OP(=O)(O)OC[C@H]3O[C@@H](n4cnc5c(=O)[nH]c(N)nc54)C[C@@H]3OP(=O)(O)OC[C@H]3O[C@@H](n4cc(C)c(=O)[nH]c4=O)C[C@@H]3OP(=O)(O)OC[C@H]3O[C@@H](n4cc(C)c(=O)[nH]c4=O)C[C@@H]3OP(=O)(O)OC[C@H]3O[C@@H](n4c(C(F)(F)F)nc5c(=O)[nH]c(N)nc54)C[C@@H]3OP(=O)(O)OC[C@H]3O[C@@H](n4cnc5c(=O)[nH]c(N)nc54)C[C@@H]3O)[C@@H](COP(=O)(O)O[C@H]3C[C@H](n4cc(C)c(=O)[nH]c4=O)O[C@@H]3COP(=O)(O)O[C@H]3C[C@H](n4cnc5c(=O)[nH]c(N)nc54)O[C@@H]3COP(=O)(O)O[C@H]3C[C@H](n4cnc5c(=O)[nH]c(N)nc54)O[C@@H]3COP(=O)(O)O)O2)c(=O)[nH]c1=O`, the Stabilty result in data set [1] was “Unstable”. Moreover, the outcome in the data set with Plasma [2] and with Plasma [3] was inactive. Besides, in data set [4], the deltaTm is 7.6 °C. In the data set with Plasma [5], this molecule had a PT of 29.1 s. Moreover, the Activity in the data set on Rattus norvegicus stood at 60%.

With `Cc1cn([C@H]2C[C@H](OP(=O)(O)OC[C@H]3O[C@@H](n4c(C(F)(F)F)nc5c(=O)[nH]c(N)nc54)C[C@@H]3OP(=O)(O)OC[C@H]3O[C@@H](n4cnc5c(=O)[nH]c(N)nc54)C[C@@H]3OP(=O)(O)OC[C@H]3O[C@@H](n4cc(C)c(=O)[nH]c4=O)C[C@@H]3OP(=O)(O)OC[C@H]3O[C@@H](n4cnc5c(=O)[nH]c(N)nc54)C[C@@H]3OP(=O)(O)OC[C@H]3O[C@@H](n4cc(C)c(=O)[nH]c4=O)C[C@@H]3OP(=O)(O)OC[C@H]3O[C@@H](n4cnc5c(=O)[nH]c(N)nc54)C[C@@H]3OP(=O)(O)OC[C@H]3O[C@@H](n4cnc5c(=O)[nH]c(N)nc54)C[C@@H]3OP(=O)(O)OC[C@H]3O[C@@H](n4cc(C)c(=O)[nH]c4=O)C[C@@H]3OP(=O)(O)OC[C@H]3O[C@@H](n4cc(C)c(=O)[nH]c4=O)C[C@@H]3OP(=O)(O)OC[C@H]3O[C@@H](n4c(C(F)(F)F)nc5c(=O)[nH]c(N)nc54)C[C@@H]3OP(=O)(O)OC[C@H]3O[C@@H](n4cnc5c(=O)[nH]c(N)nc54)C[C@@H]3O)[C@@H](COP(=O)(O)O[C@H]3C[C@H](n4cc(C)c(=O)[nH]c4=O)O[C@@H]3COP(=O)(O)O[C@H]3C[C@H](n4cnc5c(=O)[nH]c(N)nc54)O[C@@H]3COP(=O)(O)O[C@H]3C[C@H](n4cnc5c(=O)[nH]c(N)nc54)O[C@@H]3COP(=O)(O)O)O2)c(=O)[nH]c1=O`, the Stabilty entry in data set [1] is listed as “Unstable”; in data set [6], “Stable”. For the same molecule, the outcome in the data set on Plasma [2] and in the data set on Plasma [3] was inactive. The deltaTm in data set [4] stood at 16.8 °C. In the data set on Plasma [5], this molecule showed a PT of 26.7 s.

On to `Cc1cn([C@H]2C[C@H](OP(=O)(O)OC[C@H]3O[C@@H](n4c(C(F)(F)F)nc5c(=O)[nH]c(N)nc54)C[C@@H]3OP(=O)(O)OC[C@H]3O[C@@H](n4cnc5c(=O)[nH]c(N)nc54)C[C@@H]3OP(=O)(O)OC[C@H]3O[C@@H](n4cc(C)c(=O)[nH]c4=O)C[C@@H]3OP(=O)(O)OC[C@H]3O[C@@H](n4cnc5c(=O)[nH]c(N)nc54)C[C@@H]3OP(=O)(O)OC[C@H]3O[C@@H](n4cc(C)c(=O)[nH]c4=O)C[C@@H]3OP(=O)(O)OC[C@H]3O[C@@H](n4c(C(F)(F)F)nc5c(=O)[nH]c(N)nc54)C[C@@H]3OP(=O)(O)OC[C@H]3O[C@@H](n4cnc5c(=O)[nH]c(N)nc54)C[C@@H]3OP(=O)(O)OC[C@H]3O[C@@H](n4cc(C)c(=O)[nH]c4=O)C[C@@H]3OP(=O)(O)OC[C@H]3O[C@@H](n4cc(C)c(=O)[nH]c4=O)C[C@@H]3OP(=O)(O)OC[C@H]3O[C@@H](n4c(C(F)(F)F)nc5c(=O)[nH]c(N)nc54)C[C@@H]3OP(=O)(O)OC[C@H]3O[C@@H](n4cnc5c(=O)[nH]c(N)nc54)C[C@@H]3O)[C@@H](COP(=O)(O)O[C@H]3C[C@H](n4cc(C)c(=O)[nH]c4=O)O[C@@H]3COP(=O)(O)O[C@H]3C[C@H](n4cnc5c(=O)[nH]c(N)nc54)O[C@@H]3COP(=O)(O)O[C@H]3C[C@H](n4c(C(F)(F)F)nc5c(=O)[nH]c(N)nc54)O[C@@H]3COP(=O)(O)O)O2)c(=O)[nH]c1=O`, for which the Stabilty entry is given as “Unstable” in data set [1] and “Stable” in data set [6]. Also, in the data set on Plasma [3], the result was Active. The deltaTm in data set [4] was found to be 30 °C. The molecule further had a PT with Plasma [5] of 18.6 s.
